Laboratory results reported in patent US7361682B2, “Indole derivatives as H3 inverse agonists” (Hoffmann-La Roche Inc., priority 2004, dated 2008).

Molecular target: T1, histamine 3 receptor (H3R) (Homo sapiens, UniProt Q9Y5N1)
T1 construct: expressed in transfected cells; host or cells: CHO cells
Assay: Binding assay with 3H-(R)α-methylhistamine (competition binding, membranes of human HR3-CHO cell line)
Details: competition against 3H(R)α-Methylhistamine (1 nM), membrane of the human HR3-CHO cell line; Ki calculated from IC50 by Cheng-Prusoff equation
Method: Binding assay with ^3H-(R)α-methylhistamine
Saturation binding experiments were performed using HR^3—CHO membranes prepared as described in Takahashi, K, Tokita, S., Kotani, H. (2003) J. Pharmacol. Exp. Therapeutics 307, 213-218.
An appropriate amount of membrane (60 to 80 μg protein/well) was incubated with increasing concentrations of ^3H(R)α-Methylhistamine di-hydrochloride (0.10 to 10 nM). Non specific binding was determined using a 200 fold excess of cold (R)α-Methylhistamine dihydrobromide (500 nM final concentration). The incubation was carried out at room temperature (in deep-well plates shaking for three hours). The final volume in each well was 250 μl. The incubation was followed by rapid filtration on GF/B filters (pre-soaked with 100 μl of 0.5% PEI in Tris 50 mM shaking at 200 rpm for two hours). The filtration was made using a cell-harvester and the filter plates were then washed five times with ice cold washing buffer containing 0.5 M NaCl. After harvesting, the plates were dried at 55° C. for 60 min, then we added scintillation fluid (Microscint 40, 40 microl in each well) and the amount of radioactivity on the filter was determined in Packard top-counter after shaking the plates for two hours at 200 rpm at room temperature.
Binding Buffer: 50 mM Tris-HCl pH 7.4 and 5 mM MgCl2×6H2O pH 7.4. Washing Buffer: 50 mM Tris-HCl pH 7.4 and 5 mM MgCl2×6H2O and 0.5 M NaCl pH 7.4.
Indirect measurement of affinity of H3R inverse agonists: twelve increasing concentrations (ranging from 10 μM to 0.3 nM) of the selected compounds were always tested in competition binding experiments using membrane of the human HR3—CHO cell line. An appropriate amount of protein, e.g. approximately 500 cpm binding of RAMH at Kd, were incubated for 1 hour at room temperature in 250 μl final volume in 96-well plates in presence of ^3H(R)α-Methylhistamine (1 nM final concentration=Kd). […]
All compounds were tested at a single concentration in duplicates. […] Ki's were calculated from IC50 based on Cheng-Prusoff equation (Cheng, Y, Prusoff, W H (1973) Biochem Pharmacol 22, 3099-3108).

T1 sequence (Q9Y5N1 whole entry): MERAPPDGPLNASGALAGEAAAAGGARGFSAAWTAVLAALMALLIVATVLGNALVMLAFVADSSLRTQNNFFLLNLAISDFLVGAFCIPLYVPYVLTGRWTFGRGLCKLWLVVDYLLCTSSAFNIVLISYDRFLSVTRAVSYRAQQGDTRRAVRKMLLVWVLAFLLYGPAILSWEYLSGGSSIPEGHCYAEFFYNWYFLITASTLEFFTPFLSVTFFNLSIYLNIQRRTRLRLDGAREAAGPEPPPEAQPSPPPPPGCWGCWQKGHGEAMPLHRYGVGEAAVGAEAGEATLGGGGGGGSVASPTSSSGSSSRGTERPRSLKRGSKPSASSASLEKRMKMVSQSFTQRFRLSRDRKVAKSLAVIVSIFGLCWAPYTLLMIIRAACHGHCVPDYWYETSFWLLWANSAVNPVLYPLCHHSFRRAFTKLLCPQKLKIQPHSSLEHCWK

| Ki | SMILES |
| --- | --- |
| 23 nM | CC(C)N1CCC(Oc2ccc3[nH]c(C(=O)N4CCOCC4)cc3c2)C1 (stereo not drawn) [Example 2, [5-(1-Isopropyl-pyrrolidin-3-yloxy)-1H-indol-2-yl]-morpholin-4-yl-methanone] |
| 93 nM | CC(C)N1CCC(Oc2ccc3cc(C(=O)N4CCSCC4)[nH]c3c2)CC1 [Example 140, [6-(1-isopropyl-piperidin-4-yloxy)-1H-indol-2-yl]-thiomorpholin-4-yl-methanone] |
| 77 nM | CC(C)N1CCN(C(=O)c2cc3cc(OCCC4CCCN4C)ccc3[nH]2)CC1 (stereo not drawn) [Example 117, (4-Isopropyl-piperazin-1-yl)-{5-[2-(1-methyl-pyrrolidin-2-yl)-ethoxy]-1H-indol-2-yl}-methanone] |
